The record followed here is PubChem BioAssay (NCI).

The structures appear in SMILES notation. Several values for one entry are separate records, joined by “and”; a condition that tells them apart may be missing. Equal entries are not always repeated.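 Cultured in 96-well plates, cells were exposed to test compound for 48 hours across five concentrations. The concentration for 50% growth inhibition is given as GI50. TGI is the concentration that stops growth completely.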

What all share (assay): NCI anticancer screen, dose series, 48 h
The test system of assay [1] is KM20L2 colon.
The test system of assay [2] is SNB-78 CNS.
Assay [3] relates to M19-MEL melanoma.
For assay [4], the system named is DMS 114 small cell lung.
Assay [5] concerns DLD-1 colon.
Assay [6] relates to RXF-631 renal.
Assay [7] has as its system HOP-18 NSCLC.
Assay [8] deals with XF 498 CNS.
For assay [9], the system named is MDA-N.

`COC(=O)C12C3C4C1C1C2C3C41C(=O)N(C(C)C)C(C)C` (centres undefined): the TGI in assay [1], in [2], in assay [3], in [4] and in [5] was greater than 100 µM each time.

Take `[N-]=[N+]=Nc1c(Br)c(=O)[nH]c(=O)n1COCCO`: the TGI in assay [6], in assay [2], in assay [7], in assay [3], in assay [4] and in assay [8] was greater than 100 µM in each case. This compound also displayed a TGI in [5] greater than 100 µM.

For `O=C1C2=C(c3ccccc31)C(c1ccc(F)cc1)N1C(=O)CCSC1=N2` (centres undefined), the TGI in assay [1], in assay [3], in assay [4], in assay [8] and in assay [5] was greater than 100 µM each time.

As to `CC(=O)Nc1cc2cc(NS(=O)(=O)c3cc(C(F)(F)F)cc(C(F)(F)F)c3)ccc2oc1=O`, the TGI in [9] was greater than 100 µM.

Turning to `COC(=O)/C(=N/O)C(C(=O)OC)C(=O)C(=O)Nc1c(Cl)cc(C)cc1S(=O)(=O)O` (centres undefined), the TGI in [6], in assay [1], in assay [2], in assay [7], in [3] and in [4] was greater than 100 µM each time. Also, the TGI in assay [8] and in [5] was greater than 100 µM throughout.

As to `O=C(O)Cc1cc(=O)[nH]c2c1C(=O)CCC2`, the TGI in assay [1], in [7], in assay [3], in assay [8] and in assay [5] was greater than 100 µM each time.

For the compound `O=C1C2=C(c3ccccc31)C(c1ccc(Cl)cc1)NC(=S)N2` (centres undefined), the TGI in assay [1] was 37.4 µM; in assay [3], 37.2 µM; in assay [4], 67.5 µM; in assay [5] it was 60.9 µM.

Turning to `O=C(/C=C/c1ccccc1)CCc1c(O)c2ccccc2oc1=O`, the TGI in assay [9] was greater than 100 µM.

Turning to `Cc1cc(Cl)ccc1NC(=O)CCCC(=O)C(C(=O)c1ccccc1)c1ccccc1` (centres undefined), the TGI in assay [6], in [1], in assay [2], in assay [3], in assay [4] and in [5] was greater than 100 µM each time.

Turning to `CC(=O)O[C@H]1C(=O)[C@@]2(C)C(C(OC(=O)c3ccccc3)[C@]3(O)CC(OC(=O)C(O)C(NC(=O)c4ccccc4)c4ccc(C)cc4)C(C)=C1C3(C)C)[C@]1(OC(C)=O)CO[C@@H]1C[C@@H]2O` (some centres undefined), the TGI is 0.0981 µM in assay [1]; greater than 25 µM in [2]; 23.6 µM in assay [7]; 3.57 µM in assay [3]; 0.168 µM in [4]; 0.134 µM in assay [8]. For the same compound, the TGI in assay [5] is greater than 25 µM.

For `COc1cc2c3c(c1OC)Oc1ccc(cc1)CC1c4c(cc(OC)c(OC)c4Oc4ccc(cc4)CC3N(C)CC2)CCN1C` (centres undefined), the TGI was 45.2 µM in assay [1]; 84.2 µM in assay [7]; 31.3 µM in [3]; 35.9 µM in [4]; greater than 100 µM in assay [5].

Consider `C[C@H]1CCC/C=C/[C@@H]2C[C@H](O)C[C@H]2[C@H](O)[C@@H](SC2OC(CO)C(O)C(O)C2O)CC(=O)O1` (some centres undefined), for which, in assay [9], the GI50 is 52.9 µM and the TGI was greater than 100 µM.

On to `CCOC(=O)NC(=O)c1cn(C2OC(CO)C(O)C2O)c(=O)[nH]c1=O` (centres undefined), for which the TGI in assay [6], in assay [1], in assay [3], in assay [4] and in assay [5] was greater than 100 µM in each case.

Regarding `COc1cccc2ccc3c(c12)C(=O)OC31CCc2c(C)cccc21` (centres undefined), the TGI in assay [1] was greater than 31.6 µM; in assay [2], greater than 100 µM; in assay [7], greater than 31.6 µM; in [3], greater than 31.6 µM; in assay [4] it was greater than 31.6 µM; in [9] it was greater than 100 µM. In addition, the TGI in [8] is 86.2 µM; in [5], greater than 31.6 µM.

Turning to `COC(=O)c1nn(C(=N)c2ccc(Cl)cc2)c2c1CCCCC2`, the TGI in assay [1], in [2], in assay [3], in assay [4] and in assay [5] was greater than 100 µM each time.

Take `CCCCCCCCCCCCCCC(O)C1CCC(C(O)CCC(O)CCCCCC(O)CC2=CC(C)OC2=O)O1` (centres undefined): the TGI in assay [6] is 16.4 µM; in [1], 18.3 µM; in assay [2], 8.31 µM; in assay [3], 11.2 µM; in [4] it was 4.57 µM; in assay [8] it was 4.88 µM. In assay [5], the TGI is 11.9 µM.

Regarding `N[C@H](C(=O)O)[C@@H](Cl)CC(=O)O`, the TGI in assay [1], in [2], in assay [7], in assay [3], in assay [4] and in assay [8] was greater than 100 µM each time. The compound also had a TGI in assay [5] greater than 100 µM.

With `Cc1ccc([N+](=O)[O-])cc1NC(=O)C(=O)C1CCC2=C(Sc3ccccc3N2)C1=O` (centres undefined), the TGI in [9] was greater than 100 µM.

In the case of `COC(=O)C1=C(c2cc(OC)c(OC)c(OC)c2)O[C@H](c2ccc3c(c2)OCO3)[C@H]1COC(C)=O`, the TGI in [6], in [1], in assay [2], in assay [7], in assay [3] and in assay [8] was greater than 100 µM throughout. In assay [5], this compound displayed a TGI greater than 100 µM.

With `CCOC(=O)/C(C#N)=C(N)/C(=N\Nc1cccc(C(F)(F)F)c1)C(=O)OCC`, the TGI in assay [1], in assay [2], in assay [7], in assay [3], in assay [4] and in assay [5] was greater than 100 µM throughout.

Compound `O=C(Nc1ccccc1C(=O)Nc1nccs1)c1ccccc1` displayed a TGI in [9] greater than 100 µM.

With `CNC(C)Cc1ccc(O)cc1` (centres undefined), the TGI in [6], in assay [1], in assay [2], in [7], in assay [4] and in assay [8] was greater than 100 µM each time. The TGI in [5] was greater than 100 µM.

Regarding `c1ccc(COc2cccc3cccnc23)cc1`, the TGI in assay [6], in assay [1], in assay [7], in assay [3], in assay [4] and in assay [8] was greater than 100 µM throughout. Moreover, the TGI in assay [5] is greater than 100 µM.

On to `CC1=NN(C(=O)c2cc(Cl)cc([N+](=O)[O-])c2)C(=O)C1N=Nc1ccccc1C(=O)O` (centres undefined), for which the TGI in [6], in assay [2], in [7], in assay [3] and in assay [5] was greater than 100 µM in each case.

With `C/C=C/C(=O)[O-].N.N.N.N.N.[Co+3].[O-][Cl+3]([O-])([O-])[O-]`, the GI50 in assay [1], in assay [2] and in assay [5] was greater than 100 µM throughout. For the same compound, the TGI in assay [1], in assay [2] and in [5] was greater than 100 µM each time.

With `O=[N+]([O-])c1ccc(NC(=S)N/N=C(\c2ccccc2)c2ccccn2)cc1`, the TGI in [9] is 3.32 µM and 3.1 µM.

As for `Cc1cccc(O)c(=O)c1`, the TGI was greater than 100 µM in [1]; greater than 100 µM in assay [2]; greater than 100 µM in assay [7]; greater than 100 µM in assay [3]; 45.7 µM in assay [4]; greater than 100 µM in assay [5].

As to `O=c1cccccc1NCCNc1cccccc1=O`, the TGI in [6], in assay [1], in assay [2], in [3], in [4] and in assay [8] was greater than 100 µM in each case.

Consider `S=c1[nH]nc(SCc2ccccc2Cl)c2[nH]cnc12`, for which the TGI in [9] was greater than 100 µM.

On to `Cc1ccc(SCC(O)=C2C(=O)CCCC2=O)cc1`, for which the TGI in assay [6], in assay [1], in assay [2], in [7], in assay [3] and in assay [4] was greater than 100 µM each time. In addition, the TGI in assay [8] and in [5] was greater than 100 µM in each case.

On to `Cc1ccc(C)c2c1CCc1cc3ccccc3nc1-2`, for which the TGI in [1], in [2], in assay [7], in assay [3], in [4] and in [8] was greater than 100 µM throughout. Besides, the TGI in [5] was greater than 100 µM.

Turning to `C[C@@H](c1ccccc1)N(CC#N)C1CCC[C@H]1O` (some centres undefined), the TGI in [6], in [1], in assay [2], in assay [7], in [3] and in assay [8] was greater than 100 µM each time.

As for `CC(=O)OCC(OC(C)=O)C(OC(C)=O)C(OC(C)=O)C(=O)CNn1c(-c2ccccc2Cl)nc2ccc(Br)cc2c1=O` (centres undefined), the TGI in assay [1] is greater than 100 µM; in [2], greater than 100 µM; in assay [3] it was greater than 100 µM; in [4], greater than 100 µM; in [8], 66.2 µM.

Consider `CCC1(CC)C(=O)[N-]C(=O)[N-]C1=O.[Au+].[Au+].c1ccc([PH+](c2ccccc2)c2ccccc2)cc1.c1ccc([PH+](c2ccccc2)c2ccccc2)cc1`, for which, in assay [7], the GI50 is 0.256 µM and the TGI was 1.16 µM. For the same compound, in [3], the GI50 was 0.937 µM and the TGI stood at 2.17 µM.

`CC(C)N(Cc1ccccc1)S(=O)(=O)c1n[nH]c(C(C)(C)C)n1` had a TGI in assay [9] greater than 100 µM.

For `O=C(Nc1ccccc1C(=O)O)C(=O)C(C(=O)c1ccccc1-c1ccccc1)C1OC(=O)c2ccccc21` (centres undefined), the TGI in [1] is 44 µM; in assay [2], greater than 100 µM; in assay [7] it was 28.2 µM; in assay [3], 64.2 µM; in [8], 22 µM; in assay [5], 47 µM.

Turning to `O=C1OC(c2ccccc2)=N/C1=C/N1CCCC1C(=O)O` (centres undefined), the TGI in assay [6], in assay [1], in assay [2], in assay [7], in assay [3] and in assay [4] was greater than 100 µM throughout. Moreover, the TGI in assay [8] and in assay [5] was greater than 100 µM in each case.

Consider `CN/N=C(\C(=O)Nc1ccc([N+](=O)[O-])cc1[N+](=O)[O-])C1NC(=O)NC1=O` (centres undefined), for which the TGI in assay [1], in assay [2], in assay [7], in [3], in [4] and in assay [5] was greater than 100 µM in each case.

In the case of `O=C(O)c1oc2cccc3c2c1CCC3`, the TGI in [6], in assay [2], in assay [3], in assay [4], in assay [8] and in assay [5] was greater than 100 µM in each case.
